Earlier results on two compounds are cited in paper PMC6832352, “Synthesis and Glycosidase Inhibition of Broussonetine M and Its Analogues” (Molecules, 2019).

Data set [1] addresses T1, α-Glucosidase (Saccharomyces cerevisiae, UniProt P53341).
T1 construct: purchased Sigma-Aldrich Chemical Co
The settings on record: Yeast; cited from earlier work.

Data set [2] addresses T2, α-Glucosidase (Oryza sativa subsp. japonica, UniProt Q653V7).
T2 construct: purchased Sigma-Aldrich Chemical Co
As to conditions: Rice; cited from earlier work.

The target in data set [3] is β-Glucosidase. As to conditions: Almond; cited from earlier work.
Data set [4] has as its target T3, β-Glucosidase (Bos taurus, UniProt F1MNT6).
T3 sequence (F1MNT6 1-469): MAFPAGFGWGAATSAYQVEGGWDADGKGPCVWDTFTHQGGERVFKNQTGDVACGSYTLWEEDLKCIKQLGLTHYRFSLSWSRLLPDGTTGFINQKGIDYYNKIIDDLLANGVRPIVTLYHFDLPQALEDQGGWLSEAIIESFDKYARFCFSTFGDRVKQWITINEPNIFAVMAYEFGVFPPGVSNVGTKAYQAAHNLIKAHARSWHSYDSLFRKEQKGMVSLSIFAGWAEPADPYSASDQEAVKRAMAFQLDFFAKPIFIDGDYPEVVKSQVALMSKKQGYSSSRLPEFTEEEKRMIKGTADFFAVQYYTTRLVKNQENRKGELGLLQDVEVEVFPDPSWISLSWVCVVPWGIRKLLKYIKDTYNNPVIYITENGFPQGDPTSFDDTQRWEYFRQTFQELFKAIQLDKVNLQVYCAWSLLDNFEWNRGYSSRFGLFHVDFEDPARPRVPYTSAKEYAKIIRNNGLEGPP
As to conditions: Bovine liver, cited from earlier work.

In data set [5] the target is T4, α-Galactosidase (Coffea arabica, UniProt Q42656).
T4 construct: purchased Sigma-Aldrich Chemical Co
T4 sequence (Q42656 16-378): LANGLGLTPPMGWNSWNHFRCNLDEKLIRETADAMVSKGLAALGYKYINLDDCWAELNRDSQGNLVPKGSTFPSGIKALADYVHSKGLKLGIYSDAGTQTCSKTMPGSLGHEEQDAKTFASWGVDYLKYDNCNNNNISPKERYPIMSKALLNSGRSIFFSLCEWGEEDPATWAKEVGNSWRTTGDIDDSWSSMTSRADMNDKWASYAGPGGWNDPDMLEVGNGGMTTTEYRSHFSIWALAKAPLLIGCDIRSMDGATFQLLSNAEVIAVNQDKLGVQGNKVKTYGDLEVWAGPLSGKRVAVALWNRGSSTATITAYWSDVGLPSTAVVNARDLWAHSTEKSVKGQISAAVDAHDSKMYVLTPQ
The settings on record: Coffee beans, cited from earlier work; for inhibition %: at 1000 μM (per NI footnote).

For data set [6], the system named is β-Galactosidase. As to conditions: β-Galactosidase, Bovine liver, cited from earlier work; for inhibition %: at 1000 μM (per NI footnote).
Data set [7] addresses β-Mannosidase. The settings on record: Snail, cited from earlier work; for inhibition %: at 1000 μM (per NI footnote).
Data set [8] addresses T5, α-L-Fucosidase (Bos taurus, UniProt Q2KIM0).
T5 construct: purchased Sigma-Aldrich Chemical Co; host or cells: bovine kidney
T5 sequence (Q2KIM0 23-468): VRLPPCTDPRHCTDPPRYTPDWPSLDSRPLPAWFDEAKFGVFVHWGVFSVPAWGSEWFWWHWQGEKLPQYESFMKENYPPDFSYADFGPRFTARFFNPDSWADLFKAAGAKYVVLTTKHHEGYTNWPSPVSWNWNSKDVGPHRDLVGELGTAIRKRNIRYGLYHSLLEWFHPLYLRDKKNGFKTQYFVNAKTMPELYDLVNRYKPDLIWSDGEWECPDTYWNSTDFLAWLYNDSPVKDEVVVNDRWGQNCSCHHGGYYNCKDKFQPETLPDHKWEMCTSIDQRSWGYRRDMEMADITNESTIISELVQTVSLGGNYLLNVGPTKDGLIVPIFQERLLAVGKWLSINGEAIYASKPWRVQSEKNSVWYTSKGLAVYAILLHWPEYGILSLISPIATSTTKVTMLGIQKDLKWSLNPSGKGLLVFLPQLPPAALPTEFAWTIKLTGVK
The settings on record: Bovine kidney, cited from earlier work; for inhibition %: at 1000 μM (per NI footnote).

For data set [9], the target named is T6, Amyloglucosidase (Aspergillus niger, UniProt P69328).
T6 construct: purchased Sigma-Aldrich Chemical Co
T6 sequence (P69328 25-640): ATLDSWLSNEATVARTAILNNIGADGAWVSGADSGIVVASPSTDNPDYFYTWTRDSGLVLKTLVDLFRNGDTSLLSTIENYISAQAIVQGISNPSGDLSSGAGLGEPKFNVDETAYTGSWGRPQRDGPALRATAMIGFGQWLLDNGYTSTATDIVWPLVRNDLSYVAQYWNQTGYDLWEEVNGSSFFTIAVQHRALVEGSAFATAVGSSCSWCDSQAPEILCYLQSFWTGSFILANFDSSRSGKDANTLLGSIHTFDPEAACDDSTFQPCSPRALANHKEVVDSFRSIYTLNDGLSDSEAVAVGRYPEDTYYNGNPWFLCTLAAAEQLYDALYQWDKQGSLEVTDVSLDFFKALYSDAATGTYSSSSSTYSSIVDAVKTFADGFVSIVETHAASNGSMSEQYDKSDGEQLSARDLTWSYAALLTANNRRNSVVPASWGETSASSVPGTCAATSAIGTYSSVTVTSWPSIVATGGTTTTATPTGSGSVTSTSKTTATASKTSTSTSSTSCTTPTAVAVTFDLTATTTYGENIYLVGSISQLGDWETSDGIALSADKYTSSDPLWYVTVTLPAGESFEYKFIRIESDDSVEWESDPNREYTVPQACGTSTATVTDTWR
The arrangement: method as in PMID 21157573. As to conditions: A. niger, cited from earlier work.

For data set [10], the target named is T7, α-L-Rhamnosidase (Penicillium decumbens, UniProt S7ZS15).
T7 sequence (S7ZS15 1-894): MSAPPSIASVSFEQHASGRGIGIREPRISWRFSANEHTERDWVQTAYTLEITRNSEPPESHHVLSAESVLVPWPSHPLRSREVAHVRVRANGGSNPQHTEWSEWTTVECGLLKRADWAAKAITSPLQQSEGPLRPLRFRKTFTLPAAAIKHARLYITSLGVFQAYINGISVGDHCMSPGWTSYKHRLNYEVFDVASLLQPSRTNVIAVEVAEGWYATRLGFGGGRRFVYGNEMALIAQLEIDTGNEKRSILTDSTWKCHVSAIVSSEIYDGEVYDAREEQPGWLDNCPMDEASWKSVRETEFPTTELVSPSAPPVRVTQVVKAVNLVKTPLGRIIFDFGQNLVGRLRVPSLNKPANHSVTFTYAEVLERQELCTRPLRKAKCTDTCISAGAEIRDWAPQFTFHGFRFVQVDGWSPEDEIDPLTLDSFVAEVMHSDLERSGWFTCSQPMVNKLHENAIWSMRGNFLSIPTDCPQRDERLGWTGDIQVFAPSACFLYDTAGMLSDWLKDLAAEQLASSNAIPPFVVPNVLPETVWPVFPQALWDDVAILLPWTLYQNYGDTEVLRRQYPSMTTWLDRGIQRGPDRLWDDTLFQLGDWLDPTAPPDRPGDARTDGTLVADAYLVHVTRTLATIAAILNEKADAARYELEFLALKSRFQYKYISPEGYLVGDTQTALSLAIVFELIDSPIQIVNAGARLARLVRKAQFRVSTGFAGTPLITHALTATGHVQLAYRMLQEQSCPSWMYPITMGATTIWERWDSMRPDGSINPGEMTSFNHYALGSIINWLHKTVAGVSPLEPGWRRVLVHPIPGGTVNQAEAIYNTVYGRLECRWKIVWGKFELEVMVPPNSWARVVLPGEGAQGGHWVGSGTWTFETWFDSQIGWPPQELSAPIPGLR
The settings on record: at 1000 μM (per NI footnote), P. decumbens; cited from earlier work.

Data set [11] deals with T8, α-Mannosidase (Canavalia ensiformis, UniProt C0HJB3).
T8 construct: purchased Sigma-Aldrich Chemical Co
T8 sequence (C0HJB3 1-981): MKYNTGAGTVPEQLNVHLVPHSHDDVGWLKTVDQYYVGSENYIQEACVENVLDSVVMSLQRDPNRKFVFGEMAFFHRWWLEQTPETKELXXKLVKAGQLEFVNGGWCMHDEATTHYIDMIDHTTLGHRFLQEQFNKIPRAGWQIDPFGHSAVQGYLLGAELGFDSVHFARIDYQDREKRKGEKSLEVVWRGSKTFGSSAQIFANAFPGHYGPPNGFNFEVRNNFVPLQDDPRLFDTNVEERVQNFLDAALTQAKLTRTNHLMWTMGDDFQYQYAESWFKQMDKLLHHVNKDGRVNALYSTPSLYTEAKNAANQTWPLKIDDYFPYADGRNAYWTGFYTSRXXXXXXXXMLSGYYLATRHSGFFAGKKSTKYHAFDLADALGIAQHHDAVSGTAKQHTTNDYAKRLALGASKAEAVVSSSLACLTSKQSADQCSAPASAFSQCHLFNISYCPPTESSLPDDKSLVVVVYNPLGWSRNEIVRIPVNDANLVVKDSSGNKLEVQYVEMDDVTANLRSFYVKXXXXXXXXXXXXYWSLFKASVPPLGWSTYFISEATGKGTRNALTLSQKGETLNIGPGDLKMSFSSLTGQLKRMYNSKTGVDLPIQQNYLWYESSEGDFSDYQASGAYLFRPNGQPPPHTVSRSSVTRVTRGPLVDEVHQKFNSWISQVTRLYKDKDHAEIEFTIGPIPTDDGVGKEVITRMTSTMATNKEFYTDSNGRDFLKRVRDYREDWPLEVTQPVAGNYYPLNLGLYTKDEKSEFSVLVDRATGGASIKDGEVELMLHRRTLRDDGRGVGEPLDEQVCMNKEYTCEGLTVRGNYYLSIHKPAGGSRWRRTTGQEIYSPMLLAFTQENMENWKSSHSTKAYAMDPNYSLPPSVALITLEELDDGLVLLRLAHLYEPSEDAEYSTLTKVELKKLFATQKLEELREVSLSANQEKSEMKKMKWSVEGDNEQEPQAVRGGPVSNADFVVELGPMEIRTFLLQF
As to conditions: Jack bean, cited from earlier work.

Some results are limits rather than exact numbers.

T1 sequence (P53341 whole entry): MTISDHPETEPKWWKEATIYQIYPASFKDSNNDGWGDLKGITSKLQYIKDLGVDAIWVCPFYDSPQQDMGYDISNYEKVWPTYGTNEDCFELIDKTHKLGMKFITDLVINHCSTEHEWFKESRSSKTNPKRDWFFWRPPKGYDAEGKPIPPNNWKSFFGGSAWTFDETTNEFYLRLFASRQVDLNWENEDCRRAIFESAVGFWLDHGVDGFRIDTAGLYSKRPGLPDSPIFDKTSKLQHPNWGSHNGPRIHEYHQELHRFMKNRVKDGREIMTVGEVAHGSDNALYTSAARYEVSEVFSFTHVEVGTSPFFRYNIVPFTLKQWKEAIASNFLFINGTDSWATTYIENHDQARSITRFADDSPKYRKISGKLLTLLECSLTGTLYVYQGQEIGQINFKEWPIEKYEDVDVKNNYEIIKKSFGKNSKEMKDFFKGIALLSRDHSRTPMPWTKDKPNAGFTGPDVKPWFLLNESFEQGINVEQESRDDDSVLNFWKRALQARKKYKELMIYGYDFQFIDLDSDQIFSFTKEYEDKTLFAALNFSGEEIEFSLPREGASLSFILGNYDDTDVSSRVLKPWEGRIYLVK
T2 sequence (Q653V7 34-885): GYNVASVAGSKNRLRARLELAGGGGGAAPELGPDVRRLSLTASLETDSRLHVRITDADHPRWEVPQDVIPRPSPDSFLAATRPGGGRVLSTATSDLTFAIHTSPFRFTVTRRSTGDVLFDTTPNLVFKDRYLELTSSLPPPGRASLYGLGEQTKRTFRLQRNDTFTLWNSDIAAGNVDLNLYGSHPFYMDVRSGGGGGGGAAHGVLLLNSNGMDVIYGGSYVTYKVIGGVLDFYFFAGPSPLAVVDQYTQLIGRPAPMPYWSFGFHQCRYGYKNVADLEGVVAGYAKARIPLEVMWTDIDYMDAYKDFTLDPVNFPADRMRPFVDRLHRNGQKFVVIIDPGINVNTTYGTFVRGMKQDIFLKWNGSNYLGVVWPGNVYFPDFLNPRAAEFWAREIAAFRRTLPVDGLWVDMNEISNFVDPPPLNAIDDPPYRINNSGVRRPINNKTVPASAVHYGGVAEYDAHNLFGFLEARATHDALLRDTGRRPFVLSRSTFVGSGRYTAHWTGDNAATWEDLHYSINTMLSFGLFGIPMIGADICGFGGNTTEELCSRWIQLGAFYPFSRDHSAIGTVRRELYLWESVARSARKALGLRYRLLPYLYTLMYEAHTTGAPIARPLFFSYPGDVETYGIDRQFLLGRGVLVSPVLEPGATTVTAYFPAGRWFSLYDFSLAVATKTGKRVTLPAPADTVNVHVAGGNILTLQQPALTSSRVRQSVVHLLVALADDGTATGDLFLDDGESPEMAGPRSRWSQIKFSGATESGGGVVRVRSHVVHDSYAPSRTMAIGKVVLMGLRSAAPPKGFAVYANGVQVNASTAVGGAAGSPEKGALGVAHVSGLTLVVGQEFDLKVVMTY

The term IC50 denotes the concentration needed to halve the response being measured. In the case of `OC[C@H]1NC[C@@H](O)[C@@H]1O` [DAB (1), 1,4-dideoxy-1,4-imino-D-arabinitol], the IC50 in data set [1] is 0.15 µM; in data set [2], 250 µM; in data set [3] it was 250 µM; in [4], 638 µM; in data set [5], > 1000 µM; in data set [6], > 1000 µM. Further, the IC50 in data set [7] is > 1000 µM; in data set [8], > 1000 µM; in data set [9] it was 362 µM. Further, the inhibition % in data set [5] is on record as 7%; in data set [6], 37%; in data set [7], 10%; in [8], 11%; in data set [10] it was 5%.
`OC[C@@H]1NC[C@H](O)[C@H]1O` [LAB (ent-1), 1,4-dideoxy-1,4-imino-L-arabinitol]: the IC50 in data set [1] was 70 µM; in data set [2], 3.2 µM; in data set [3] it was > 1000 µM; in [5], > 1000 µM; in data set [6] it was > 1000 µM; in data set [11], > 1000 µM. Further, the IC50 in [7], in data set [8] and in data set [9] was > 1000 µM throughout. The inhibition % is listed as 13% in [4] (at 1000 μM (per NI footnote)); 2% in [5]; 16% in data set [6]; 0% in data set [11] (at 1000 μM (per NI footnote)); 1% in [7]; 0% in [8]. The inhibition % in [9] (at 1000 μM (per NI footnote)) is 41%.
